# Experimental data taken from the supplement of paper PMC10307832.
# Columns and labels:
# Assay in all cases: relative viability (nuclei count vs DMSO), 5 days (fraction); higher = more cells survive
# MK-8033 + Alpelisib = compound: Cn1cc(-c2cnc3ccc4ccc(CS(=O)(=O)NCc5ccccn5)cc4c(=O)c3c2)cn1 [MK-8033] + Cc1nc(NC(=O)N2CCC[C@H]2C(N)=O)sc1-c1ccnc(C(C)(C)C(F)(F)F)c1 [Alpelisib] (partner 2 µM)
# Summary of the method: (§1)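 Relative viability is defined as nuclei in treated wells over nuclei in vehicle wells. Duplicate plates were run and medians reported. Lung cancer cell lines in 1536-well plates were dosed by pin tool one day after seeding, with one drug or with a fixed anchor-drug dose plus five library-drug doses (not always all listed) in √10 steps, and nuclei were counted after 5 days.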
# Irinotecan + Pictilisib = compound: CCc1c2c(nc3ccc(OC(=O)N4CCC(N5CCCCC5)CC4)cc13)-c1cc3c(c(=O)n1C2)COC(=O)[C@]3(O)CC [Irinotecan] + CS(=O)(=O)N1CCN(Cc2cc3nc(-c4cccc5[nH]ncc45)nc(N4CCOCC4)c3s2)CC1 [Pictilisib] (partner 1 µM)
# Summary of the method: as §1
# RU-SKI 43 + Pemetrexed = compound: CC[C@@H](C)CNCC(=O)N1CCC2=C([C@@H]1COC3=CC=CC(=C3)C)C=CS2 [RU-SKI 43] + Nc1nc2[nH]cc(CCc3ccc(C(=O)N[C@@H](CCC(=O)O)C(=O)O)cc3)c2c(=O)[nH]1 [Pemetrexed] (partner 0.2 µM)
# Summary of the method: as §1
# Irinotecan + Foretinib = compound: CCc1c2c(nc3ccc(OC(=O)N4CCC(N5CCCCC5)CC4)cc13)-c1cc3c(c(=O)n1C2)COC(=O)[C@]3(O)CC [Irinotecan] + COc1cc2c(Oc3ccc(NC(=O)C4(C(=O)Nc5ccc(F)cc5)CC4)cc3F)ccnc2cc1OCCCN1CCOCC1 [Foretinib] (partner 0.25 µM)
# Summary of the method: as §1
Cell Line,relative viability (MK-8033 + Alpelisib; first compound 0.02 µM),relative viability (MK-8033 + Alpelisib; first compound 0.06325 µM),relative viability (MK-8033 + Alpelisib; first compound 0.2 µM),relative viability (MK-8033 + Alpelisib; first compound 0.6325 µM),relative viability (MK-8033 + Alpelisib; first compound 2 µM),relative viability (Irinotecan + Pictilisib; first compound 0.6325 µM),relative viability (Irinotecan + Pictilisib; first compound 2 µM),relative viability (Irinotecan + Pictilisib; first compound 6.325 µM),relative viability (Irinotecan + Pictilisib; first compound 20 µM),relative viability (RU-SKI 43 + Pemetrexed; first compound 0.1 µM),relative viability (RU-SKI 43 + Pemetrexed; first compound 0.3162 µM),relative viability (RU-SKI 43 + Pemetrexed; first compound 1 µM),relative viability (RU-SKI 43 + Pemetrexed; first compound 3.162 µM),relative viability (RU-SKI 43 + Pemetrexed; first compound 10 µM),relative viability (Irinotecan + Foretinib; first compound 0.6325 µM),relative viability (Irinotecan + Foretinib; first compound 2 µM),relative viability (Irinotecan + Foretinib; first compound 6.325 µM),relative viability (Irinotecan + Foretinib; first compound 20 µM)
LK-2,1.22,1.04,1.02,1.17,1,0.558,0.58,0.34,0.294,0.362,0.343,0.347,0.245,0.304,1.25,0.329,0.305,0.283
LOU-NH91,0.727,,0.69,0.702,0.699,0.517,0.518,0.409,0.35,0.399,0.345,0.456,0.389,0.378,0.871,0.756,0.374,0.294
LU99A,0.629,0.489,0.523,0.464,0.412,0.206,0.211,0.206,0.235,0.164,0.207,0.168,0.19,0.162,0.366,0.253,0.187,0.225
LXF-289,1.08,0.984,0.976,0.994,0.998,0.745,0.7,0.206,0.158,0.924,0.862,0.939,0.902,0.999,1.05,0.615,0.167,0.2
NCI-H23,0.737,0.639,0.679,0.668,0.633,0.397,0.442,0.256,0.258,0.787,0.687,0.834,0.715,0.705,0.471,0.258,0.227,0.25
NCI-H322M,0.697,0.77,0.801,0.792,0.839,0.532,0.507,0.344,0.338,0.642,0.68,0.662,0.673,0.572,0.971,0.882,0.491,0.368
NCI-H358,0.794,0.755,0.725,0.797,0.772,0.265,0.387,0.282,0.171,0.169,0.189,0.17,0.176,0.176,0.563,0.476,0.195,0.134
NCI-H441,0.853,0.643,0.648,0.709,0.67,0.434,0.314,0.216,0.32,0.28,0.273,0.277,0.255,0.219,0.786,0.66,0.29,0.342
NCI-H460,0.496,0.368,0.348,0.4,0.435,0.328,0.314,0.0912,0.0812,0.0581,0.0578,0.0612,0.0618,0.0606,0.815,0.418,0.136,0.0629
NCI-H520,0.806,0.841,0.832,0.905,0.871,0.225,0.324,0.201,0.152,0.651,0.801,0.831,0.858,0.636,0.623,0.679,0.352,0.283
NCI-H596,0.436,0.511,0.462,0.46,0.477,0.395,0.394,0.382,0.484,0.537,0.473,0.552,0.507,0.508,0.841,0.783,0.621,0.632
NCI-H647,1.18,1.02,0.929,1.16,1.07,,0.65,0.219,0.208,0.169,0.178,0.199,0.169,0.169,0.986,0.742,0.174,0.132
NCI-H650,1.08,1.1,1.01,1.16,1.17,0.798,0.297,0.294,0.307,0.907,0.962,,0.879,0.932,0.981,0.774,0.226,0.15
NCI-H661,0.581,0.261,0.634,0.592,0.778,0.413,0.349,0.262,0.33,0.874,1.05,0.902,0.952,0.861,0.957,0.913,0.605,0.397
NCI-H838,1,0.979,0.94,0.98,0.974,0.472,0.403,0.279,0.214,0.256,0.248,0.251,0.251,0.249,1.11,0.743,0.392,0.298
NCI-H1355,0.766,0.74,0.72,0.87,0.786,0.201,0.407,0.202,0.238,1.02,1.09,1.09,1.14,1.05,,0.622,0.321,0.259
NCI-H1395,1.2,1,1.16,1.13,1.05,,0.539,0.471,0.35,0.992,0.805,1.2,0.855,0.967,0.841,0.592,0.498,0.495
